Tests used:
[1] = biological target: T1, human Nav1.8 (Homo sapiens, UniProt Q9Y5Y9); assay: In vitro inhibition of Nav1.8, manual patch clamp on HEK293 cells stably expressing human Nav1.8; type: cell-based; details: human Nav1.8, manual patch clamp; for inhibition at 0.1 µM: HEK293, 100 nM, read-out: Inhibitory activity (inhibition/% at 100 nM concentration)
T1 construct: expressed in transfected cells
Description: Bioactivity Test 1: In Vitro Inhibition of Nav1.8 by the Compound
By using a manual patch clamp on HEK293 cells stably expressing human Nav1.8, currents on Nav1.8 before and after administration of the compound were compared after the currents on Nav1.8 were stable, to obtain the effect of the compound on the Nav1.8 channel.
The to-be-tested compound was dissolved in DMSO to prepare a 9 mM stock solution, which was taken and dissolved in extracellular fluid at a desired concentration on the day of testing. The extracellular fluid included the following ingredients (mM): NaCl, 137; KCl, 4; CaCl2, 1.8; MgCl2, 1; HEPES, 10; glucose, 10; and pH 7.4 (NaOH titration). All reagents were purchased from Sigma (St. Louis, MO).
The cells were clamped at −80 mV and depolarized with a sustained 10 ms square wave to 10 mV to obtain a current on Nav1.8. This process was repeated every 5 seconds. A maximum current caused by the square wave was detected. After the current is stable, the to-be-tested compound (dissolved in the extracellular fluid at the desired concentration) was perfused. After the current is stable, the strength of blocking Nav1.8 by the compound was calculated based on the currents before and after perfusion of the compound. pCLAMP 10 (Molecular Devices, Union City, CA) was used. That the current is stable means that the current changes over time within a limited range.

[2] = biological target: T2, Nav1.8 sodium channel (Homo sapiens, UniProt Q9Y5Y9); assay: In vitro inhibition IC50 of Nav1.8, whole-cell patch clamp on CHO cell line stably expressing Nav1.8 (SCN10A, NM_006514); type: cell-based; details: CHO cells stably expressing Nav1.8, whole-cell patch clamp, room temperature
T2 construct: expressed in transfected cells
Excerpt: Bioactivity Test 2: In Vitro Inhibition IC50 of Nav1.8 by the Test Compound
A CHO cell line stably expressing the Nav1.8 sodium channel was used for experimental assays with the following gene information: Sodium channel, voltage-gated, type 8, alpha (SCN10A), cDNA strictly similar to GenBank accession number: NM_006514.
Before the patch clamp assay, the cells were detached with 0.25%-Trypsin-EDTA, and 6.5×10^3 cells were spread onto cover slips and cultured in a 24-well plate (final volume: 500 μL) for 18 h. Then, the assay was carried out.
Fluids for electrophysiological recording included: extracellular fluid: K-007-1, 140 mM NaCl, 3.5 mM KCl, 1 mM MgCl2·6H2O, 2 mM CaCl2·2H2O, 10 mM D-Glucose, 10 mM HEPES, 1.25 mM NaH2PO4·2H2O, and NaOH for adjustment to pH=7.4; and intracellular fluid: Nav-001-2, 50 mM CsCl, 10 mM NaCl, 10 mM HEPES, 60 mM CsF, 20 mM EGTA, and […]. The extracellular fluid was stored for 2 weeks. The intracellular fluid was prepared and dispensed as 1 mL per tube, and frozen in a refrigerator at −20° C. Freshly thawed intracellular fluid was used for daily experiments. All intracellular fluids have to be used up within three months. Beyond three months, the old intracellular fluid has to be discarded, and the intracellular fluid needs to be prepared again.
Patch clamp assay: Whole-cell patch-clamp recording Nav1.8 sodium currents under voltage stimulation was carried out as follows: When a whole-cell seal was formed, the cell was clamped at a voltage of −120 mV and maintained for 30 ms. The cell was depolarized from the clamping voltage to 0 mV and maintained for 50 ms. Then, the voltage was restored to −50 mV (for a specific voltage, refer to a half-inactivation voltage from an IV test) and maintained for 5 s. Next, the cell membrane potential was restored to −120 mV and maintained for 20 ms. Then, the cell was depolarized to 0 mV and maintained for 50 ms. Finally, the voltage was restored to the clamping voltage −120 mV and maintained for 30 ms. Data was collected at […]. The effect of the drug on a peak sodium current was observed. Experimental data was collected by an EPC 10 amplifier (HEKA) and stored in PatchMaster (HEKA) software.
A capillary glass tube was pulled into a recording electrode by using a microelectrode puller. The electrode filled with the intracellular fluid was loaded into an electrode holder. A microelectrode manipulator was manipulated under an inverted microscope to immerse the electrode into the extracellular fluid, and an electrode resistance (Rpip) was recorded. The electrode was brought into contact with the cell surface, and suction was applied under negative pressure to form a high-resistance seal (GQ). In this case, fast capacitance compensation was carried out, and negative pressure was then applied to break the cell membrane through suction to form a whole-cell recording mode. Then, slow capacitance compensation was carried out, and experimental parameters such as a membrane capacitance (Cm) and a series resistance (Rs) were recorded. No leakage compensation was carried out.
The drug was administered after the Nav1.8 current obtained by whole-cell recording. The drug acted at each concentration for 5 min (or until the current was stable), and then the drug was tested at a next concentration. Each test compound was tested for multiple concentrations. The cover slips with the cells spread were placed in a recording bath under an inverted microscope. A blank control extracellular fluid and a working solution of the to-be-tested compound were perfused by gravity through the recording bath into the cells from low concentration to high concentration. Fluid exchange was carried out by using a peristaltic pump during the recording. A current detected for each cell in the compound-free extracellular fluid served as its own control. For each concentration, at least three cells were tested independently for three times. […]

[3] = test system: Nav1.8; details: background; cited from earlier work
[4] = background; cited from earlier work
[5] = Efficacy on a mouse model of incisional pain, mechanical pain threshold (PWT); type: in vivo; details: intravenous
Excerpt: Bioactivity Test 3: Efficacy of the Compound on a Mouse Model of Incisional Pain
Model establishment: Through isoflurane anesthesia and routine disinfection, a 0.5 cm longitudinal skin incision extending to the toe was made with a blade on the plantar surface of the left hindfoot about 0.2 cm distal to the joint; and the plantar muscle was separated, slightly elevated, and then incised longitudinally, taking care not to disrupt the muscle origin. The incision was sutured horizontally and interruptedly with 5-0 nylon thread (2 sutures).
Solvents: A solvent for the test compound was 5% DMSO+10% Solutol+85% Saline, and a solvent for a positive compound TRV-130 was 10% ethanol+10% cremophor+80% water. […]
Mechanical pain threshold measurement: Before modeling, a pre-modeling mechanical pain threshold was measured. At 2.5 h after modeling, a pre-administration mechanical pain threshold was measured. Oral administration was carried out after the measurement, and a mechanical pain threshold was measured at 2 h after the administration. […] Each animal was measured three times at intervals of 3-5 minutes, and an average value was calculated.
Data analysis: Relevant data was organized in Office Excel 2013 and GraphPad Prism 6.0. Data was expressed as Mean±SEM (standard error). […]

T2 sequence (Q9Y5Y9 whole entry): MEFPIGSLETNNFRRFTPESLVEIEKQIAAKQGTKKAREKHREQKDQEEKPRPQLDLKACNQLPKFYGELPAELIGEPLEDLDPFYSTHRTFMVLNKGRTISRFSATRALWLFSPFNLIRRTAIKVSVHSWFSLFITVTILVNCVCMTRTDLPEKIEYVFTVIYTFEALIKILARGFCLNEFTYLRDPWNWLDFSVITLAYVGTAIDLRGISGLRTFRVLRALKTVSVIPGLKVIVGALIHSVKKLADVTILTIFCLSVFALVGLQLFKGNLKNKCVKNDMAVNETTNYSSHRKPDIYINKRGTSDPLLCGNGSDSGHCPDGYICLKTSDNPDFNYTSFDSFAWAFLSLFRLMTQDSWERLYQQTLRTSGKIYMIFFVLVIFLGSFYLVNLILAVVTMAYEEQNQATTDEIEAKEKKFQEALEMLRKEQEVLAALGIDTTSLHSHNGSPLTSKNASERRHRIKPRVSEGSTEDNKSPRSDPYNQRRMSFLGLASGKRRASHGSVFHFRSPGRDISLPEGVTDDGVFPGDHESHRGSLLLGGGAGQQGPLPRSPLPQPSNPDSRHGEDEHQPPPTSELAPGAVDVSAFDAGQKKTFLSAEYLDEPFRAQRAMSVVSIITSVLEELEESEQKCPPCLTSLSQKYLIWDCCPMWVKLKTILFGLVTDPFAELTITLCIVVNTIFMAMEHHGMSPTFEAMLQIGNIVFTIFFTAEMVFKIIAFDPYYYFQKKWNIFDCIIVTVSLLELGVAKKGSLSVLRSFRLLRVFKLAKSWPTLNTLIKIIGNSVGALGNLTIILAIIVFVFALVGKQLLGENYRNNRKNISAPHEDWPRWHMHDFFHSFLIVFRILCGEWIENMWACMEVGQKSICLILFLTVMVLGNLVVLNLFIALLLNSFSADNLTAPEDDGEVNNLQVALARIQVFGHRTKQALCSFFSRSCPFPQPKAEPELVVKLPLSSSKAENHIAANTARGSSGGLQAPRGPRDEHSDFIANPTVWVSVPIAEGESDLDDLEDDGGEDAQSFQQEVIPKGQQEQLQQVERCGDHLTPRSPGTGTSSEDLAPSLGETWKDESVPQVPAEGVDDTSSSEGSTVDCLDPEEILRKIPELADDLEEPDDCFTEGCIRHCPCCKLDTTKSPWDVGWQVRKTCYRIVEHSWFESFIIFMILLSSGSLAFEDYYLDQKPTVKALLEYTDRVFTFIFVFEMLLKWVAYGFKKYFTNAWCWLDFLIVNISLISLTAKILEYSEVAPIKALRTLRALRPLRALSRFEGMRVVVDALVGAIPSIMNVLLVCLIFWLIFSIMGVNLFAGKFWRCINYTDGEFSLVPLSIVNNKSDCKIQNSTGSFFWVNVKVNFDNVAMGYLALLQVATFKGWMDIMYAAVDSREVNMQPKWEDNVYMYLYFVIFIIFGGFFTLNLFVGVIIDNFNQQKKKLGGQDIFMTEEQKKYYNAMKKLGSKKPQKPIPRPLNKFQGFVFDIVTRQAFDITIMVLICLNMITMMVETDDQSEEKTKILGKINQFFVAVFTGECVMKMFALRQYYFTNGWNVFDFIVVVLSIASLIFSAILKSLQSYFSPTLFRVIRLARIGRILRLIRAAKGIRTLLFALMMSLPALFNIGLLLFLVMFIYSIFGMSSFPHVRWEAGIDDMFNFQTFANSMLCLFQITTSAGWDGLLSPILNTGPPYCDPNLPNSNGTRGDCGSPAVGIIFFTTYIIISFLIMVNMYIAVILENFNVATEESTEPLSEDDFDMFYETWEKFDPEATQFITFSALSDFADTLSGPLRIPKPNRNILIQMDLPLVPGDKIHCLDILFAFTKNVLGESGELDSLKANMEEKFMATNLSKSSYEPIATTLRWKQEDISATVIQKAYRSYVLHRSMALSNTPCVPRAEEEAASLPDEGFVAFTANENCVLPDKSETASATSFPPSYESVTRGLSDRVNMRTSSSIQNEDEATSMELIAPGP
T1 sequence (Q9Y5Y9 whole entry): as above

| SMILES | inhibition at 0.1 µM [1] [%] | IC50 [2] [nM] | also measured |
| --- | --- | --- | --- |
| COc1c([C@H]2[C@H](C(=O)Nc3ccc4cn[nH]c(=O)c4c3)O[C@@](C)(C(F)(F)F)[C@H]2C)ccc(F)c1F (relative stereo) [Example 3, rel-(2R,3S,4S,5R)-3-(3,4-difluoro-2-methoxyphenyl)-4,5-dimethyl-N-4-oxa-3,4-dihydrophthalazin-6-yl)-5-(trifluoromethyl)tetrahydrofuran-2-carboxamide] | ≥ 50 | 9 |  |
| CNC(=O)c1ccc(-c2cc(Cl)cc(Cl)c2Cl)c(N)n1 [PF-01247324] |  |  | selectivity (in words) [3]: poor selectivity; bioavailability (in words) [4]: low bioavailability; pharmacokinetic data (in words) [4]: poor pharmacokinetic data |
| COc1c([C@H]2[C@H](C(=O)Nc3ccc4c(c3)NC(=O)C4)O[C@@](C)(C(F)(F)F)[C@H]2C)ccc(F)c1F (relative stereo) [Example 2] | ≥ 50 | 67 |  |
| [2H]C([2H])([2H])NS(=O)(=O)c1cc(NC(=O)[C@@H]2O[C@@](C)(C(F)(F)F)[C@@H](C)[C@H]2c2ccc(F)c(F)c2OC)ccn1 (relative stereo) [Example 82, rel-(2R,3S,4S,5R)-3-(3,4-difluoro-2-methoxyphenyl)-4,5-dimethyl-N-(2-(N-(methyl-d3)sulfamoyl)pyridin-4-yl)-5-(trifluoromethyl)tetrahydrofuran-2-carboxamide] | ≥ 50 | < 1 |  |
| COc1c([C@H]2[C@H](C(=O)Nc3ccc4c(c3)C(=O)NCC4)O[C@@](C)(C(F)(F)F)[C@H]2C)ccc(F)c1F (relative stereo) [Example 6, rel-(2R,3S,4S,5R)-3-(3,4-difluoro-2-methoxyphenyl)-4,5-dimethyl-N-(1-oxo-1,2,3,4-tetrahydroisoquinolin-7-yl)-5-(trifluoromethyl)tetrahydrofuran-2-carboxamide] | ≥ 50 | 2 |  |
| COc1c([C@H]2[C@H](C(=O)Nc3ccnc(S(N)(=O)=O)c3)O[C@]3(C(F)(F)F)CC[C@]23C)ccc(F)c1F (relative stereo) [Example 87, rel-(1R,3R,4S,5R)-4-(3,4-difluoro-2-methoxyphenyl)-5-methyl-N-(2-sulfamoylpyridin-4-yl)-1-trifluoromethyl-2-oxabicyclo[3.2.0]heptane-3-carboxamide] | ≥ 50 | 3 |  |
| COc1c([C@H]2[C@H](C(=O)Nc3ccc(F)c(C(N)=O)c3)O[C@]3(C(F)(F)F)CC[C@]23C)ccc(F)c1F (relative stereo) [Example 85, rel-(1R,3R,4S,5R)—N-(3-carbamoyl-4-fluorophenyl)-4-(3,4-difluoro-2-methoxyphenyl)-5-methyl-1-trifluoromethyl-2-oxabicyclo[3.2.0]heptane-3-carboxamide] | ≥ 50 | < 1 |  |
| COc1c([C@H]2[C@H](C(=O)Nc3ccnc(C(N)=O)c3)OC3(C(F)(F)F)CCC23C)ccc(F)c1F (relative stereo) [Example 59, rel-(2R,3S)-4-({[3-(3,4-difluoro-2-methoxyphenyl)-3a-methyl-5a-(trifluoromethyl)hexahydrocyclobuta[2,1-b]furan-2-yl]carbonyl}amino)pyridin-2-carboxamide] | ≥ 50 | 2 |  |
| COc1cc(NC(=O)c2ccc(-c3ccc(Cl)cc3)o2)cc(OC)c1 [Example A-803467] |  |  | selectivity (in words) [3]: poor selectivity; bioavailability (in words) [4]: low bioavailability; pharmacokinetic data (in words) [4]: poor pharmacokinetic data |
| CONC(=O)c1cc(NC(=O)[C@@H]2O[C@@](C)(C(F)(F)F)[C@@H](C)[C@H]2c2ccc(F)c(F)c2OC)ccn1 (relative stereo) [Example 21] | ≥ 50 | 26 |  |
| COc1ccsc1CNCC[C@@]1(c2ccccn2)CCOC2(CCCC2)C1 [TRV-130] |  |  | PWT after modeling ([5]; TRV-130 0.5 mg/kg group, after modeling, pre-administration, 2.5 h after modeling): 5.40 g; PWT 2 h after administration ([5]; TRV-130 0.5 mg/kg, 2 h after administration): 8.94 g |
| C[C@@H](C(N)=O)[C@H](N)c1nc2ccc(C(C)(C)C)cc2[nH]1 [PF-06305591] |  |  | selectivity (in words) [3]: poor selectivity; bioavailability (in words) [4]: low bioavailability; pharmacokinetic data (in words) [4]: poor pharmacokinetic data |
| COc1c(C2C(C(=O)Nc3ccc(C(N)=O)c(C(N)=O)c3)OC(C)(C(F)(F)F)C2C)ccc(F)c1F (single isomer, unassigned) [Example 30-2] |  | < 0.5 | Inhibitory activity (inhibition/% at 100 nM concentration) ([1]; 100 nM, 0.1 µM): A (A ≥ 50) |

Reference: US20260356823A1, “SODIUM CHANNEL REGULATOR AND USE THEREOF” (SHANGHAI HUILUN PHARMACEUTICAL CO., LTD., priority 2022, published 2026)
